Measurements: patent publication US20150141435A1, “2-PYRIDONE ANTIMICROBIAL COMPOSITIONS” (Emergent BioSolutions, priority 2010, published 2015)
Structures can show the parent of a compound that is named as a salt. Where two headings read alike, the source gives them in different places.

Tests used:
Type in all cases: cell-based
[1] = tested on: S. aureus ATCC 25923; assay: MIC, CLSI broth microdilution (Table 1); conditions: Staphylococcus aureus
[2] = tested on: S. aureus ATCC 43300 (MRSA, FQ-S); assay: MIC, CLSI broth microdilution (Table 1); conditions: Staphylococcus aureus, read-out: MIC S. aureus ATCC 43300 (MRSA, FQ-S)
[3] = tested on: S. aureus BAA-1720 (MRSA, FQ-R); assay: MIC, CLSI broth microdilution (Table 1); conditions: Staphylococcus aureus, read-out: MIC S. aureus BAA-1720 (MRSA, FQ-R)
[4] = tested on: E. faecium ATCC 19434; assay: MIC, CLSI broth microdilution (Table 1); conditions: Enterococcus faecium
[5] = tested on: E. faecalis ATCC 29212; assay: MIC, CLSI broth microdilution (Table 1); conditions: Enterococcus faecalis
[6] = tested on: S. pneumonia ATCC 49619; assay: MIC, CLSI broth microdilution (Table 1); conditions: Streptococcus pneumoniae
[7] = tested on: E. coli ATCC 25922; assay: MIC, CLSI broth microdilution (Table 2); conditions: Escherichia coli
[8] = tested on: A. baumannii ATCC 19606; assay: MIC, CLSI broth microdilution (Table 2); conditions: Acinetobacter baumannii
[9] = tested on: P. aeruginosa ATCC 27853; assay: MIC, CLSI broth microdilution (Table 2); conditions: Pseudomonas aeruginosa
[10] = tested on: K. pneumoniae ATCC 33495; assay: MIC, CLSI broth microdilution (Table 2); conditions: Klebsiella pneumoniae
[11] = tested on: H. influenzae ATCC 49247; assay: MIC, CLSI broth microdilution (Table 2); conditions: Haemophilus influenzae
[12] = tested on: S. maltophilia ATCC 17677; assay: MIC, CLSI broth microdilution (Table 2); conditions: Stenotrophomonas maltophilia
[13] = ATCC25923, Gram positive, MHB, 37° C., 16-20 hours, read-out: MIC S. aureus ATCC 25923
[14] = Gram positive, MHB, 37° C., 16-20 hours
[15] = ATCC19434, Gram positive, MHB, 37° C., 16-20 hours, read-out: MIC E. faecium ATCC 19434
[16] = ATCC29212, Gram positive, MHB, 37° C., 16-20 hours, read-out: MIC E. faecalis ATCC 29212
[17] = ATCC49619, Gram positive, MHB, 37° C., 16-20 hours, read-out: MIC S. pneumonia ATCC 49619
[18] = ATCC25922, Gram negative, MHB, 37° C., 16-20 hours, read-out: MIC E. coli ATCC 25922
[19] = ATCC19606, Gram negative, MHB, 37° C., 16-20 hours, read-out: MIC A. baumannii B. ATCC 19606
[20] = ATCC27853, Gram negative, MHB, 37° C., 16-20 hours, read-out: MIC P. aeruginosa ATCC 27853
[21] = ATCC33495, Gram negative, MHB, 37° C., 16-20 hours, read-out: MIC K. pneumoniae ATCC 33495
[22] = ATCC49247, Gram negative, MHB, 37° C., 16-20 hours, read-out: MIC H. influenzae ATCC 49247
[23] = ATCC17677, Gram negative, MHB, 37° C., 16-20 hours, read-out: MIC S. maltophilia ATCC 17677

| Structure (SMILES) | MIC [1, 13] | MIC [2, 14] | MIC [3, 14] | MIC [4, 15] | MIC [5, 16] | MIC [6, 17] | MIC [7, 18] | MIC [8, 19] | MIC [9, 20] | MIC [10, 21] | MIC [11, 22] | MIC [12, 23] | other results |
| --- | --- | --- | --- | --- | --- | --- | --- | --- | --- | --- | --- | --- | --- |
| Cc1c(-c2ccc(NC(N)=O)cc2)ccn2c(=O)c(C(=O)O)cc(C3CC3)c12 [Example 24 K salt, 1-cyclopropyl-9-methyl-4-oxo-8-(4-ureido-phenyl)-4H-quinolizine-3-carboxylic acid] | 0.032 to 0.064 µg/mL | 0.032 µg/mL | > 8 µg/mL | 0.5 µg/mL | 0.032 µg/mL | 0.032 µg/mL | 0.125 to 0.25 µg/mL | 4 µg/mL | 8 µg/mL | 0.5 µg/mL | 0.016 µg/mL | > 8 µg/mL |  |
| Cc1c(N2CC[C@H](N)C2)c(F)cn2c(=O)c(C(=O)O)cc(C3CC3)c12 [Example 26 K salt, 8-[(3S)-3-aminopyrrolidin-1-yl]-1-cyclopropyl-7-fluoro-9-methyl-4-oxo-quinolizine-3-carboxylic acid] | 0.032 µg/mL | 0.032 µg/mL | 1 µg/mL | 1 µg/mL | 0.125 µg/mL | 0.064 µg/mL | ≤ 0.004 µg/mL | 0.064 µg/mL | 0.125 µg/mL | 0.016 µg/mL | ≤ 0.004 µg/mL | 0.064 µg/mL |  |
| Cc1c(N2CC[C@H](N)C2)ccn2c(=O)c(C(=O)O)cc(C3CC3)c12 [Example 27 K salt, 8-[(3S)-3-aminopyrrolidin-1-yl]-1-cyclopropyl-9-methyl-4-oxo-quinolizine-3-carboxylic acid] | 1 µg/mL | 0.5 µg/mL | 8 µg/mL | > 8 µg/mL | 4 µg/mL | 2 µg/mL | 0.064 to 0.125 µg/mL | 2 µg/mL | 2 µg/mL | 0.25 µg/mL | 0.125 µg/mL | 2 µg/mL |  |
| Cc1c(-c2cc(Cl)c(N)c(Cl)c2)ccn2c(=O)c(C(=O)O)cc(C3CC3)c12 [Example 29 K salt, 1-cyclopropyl-8-(4-amino-3,5-dichloro-phenyl)-9-methyl-4-oxo-4H-quinolizine-3-carboxylic acid] | ≤ 0.004 µg/mL | 0.008 µg/mL | 0.125 µg/mL | 0.5 µg/mL | 0.008 to 0.016 µg/mL | 0.064 µg/mL | 0.25 µg/mL | 0.25 µg/mL | 4 µg/mL | 0.5 to 1 µg/mL | 0.008 to 0.016 µg/mL | 0.25 µg/mL |  |
| Cc1cc(-c2ccn3c(=O)c(C(=O)O)cc(C4CC4)c3c2C)c(Cl)cc1N [Example 30 K salt, 1-cyclopropyl-8-(4-amino-2-chloro-5-methyl-phenyl)-9-methyl-4-oxo-4H-quinolizine-3-carboxylic acid] | 0.064 µg/mL | 0.032 µg/mL | 1 µg/mL | 2 µg/mL | 0.064 µg/mL | 0.25 µg/mL | 1 µg/mL | 1 to 2 µg/mL | > 8 µg/mL | 2 to 4 µg/mL | 0.064 µg/mL | 4 µg/mL |  |
| Cc1c(N2CCNCC2)ccn2c(=O)c(C(=O)O)cc(C3CC3)c12 [Example 34 K salt, 1-cyclopropyl-9-methyl-4-oxo-8-piperazin-1-yl-quinolizine-3-carboxylic acid] | 0.5 µg/mL | 0.5 µg/mL | > 8 µg/mL | > 8 µg/mL | 4 µg/mL | 2 µg/mL | 0.064 µg/mL | 1 µg/mL | 1 µg/mL | 0.125 to 0.5 µg/mL | 0.064 µg/mL | 1 µg/mL |  |
| Cc1c(N2CCC[C@H](N)C2)ccn2c(=O)c(C(=O)O)cc(C3CC3)c12 [Example 35 K salt, 8-[(3S)-3-amino-1-piperidyl]-1-cyclopropyl-9-methyl-4-oxo-quinolizine-3-carboxylic acid] | 0.032 µg/mL | 0.032 µg/mL | 0.5 µg/mL | 2 µg/mL | 0.125 µg/mL | 0.032 µg/mL | 0.032 µg/mL | 0.25 µg/mL | 0.5 µg/mL | 0.125 to 0.5 µg/mL | 0.008 to 0.016 µg/mL | 0.125 µg/mL |  |
| Cc1c(-c2cc(F)c(N)cc2F)c(F)cn2c(=O)c(C(=O)O)cc(C3CC3)c12 [Example 38 K salt, 8-(4-amino-2,5-difluoro-phenyl)-1-cyclopropyl-7-fluoro-9-methyl-4-oxo-4H-quinolizine-3-carboxylic acid] | ≤ 0.004 µg/mL | ≤ 0.004 µg/mL | 0.064 µg/mL | > 8 µg/mL | 0.008 to 0.016 µg/mL | 0.016 µg/mL | 0.064 to 0.125 µg/mL | 0.125 µg/mL | > 8 µg/mL | 1 to 2 µg/mL | ≤ 0.004 µg/mL | 0.25 µg/mL |  |
| Cc1c(-c2cc(F)c(N)c(F)c2)ccn2c(=O)c(C(=O)O)cc(C3CC3)c12 [Example 39 K salt, 8-(4-amino-3,5-difluoro-phenyl)-1-cyclopropyl-9-methyl-4-oxo-4H-quinolizine-3-carboxylic acid] |  |  |  |  |  |  |  |  |  |  |  |  | MIC ([1]; ATCC25923, read-out: MIC S. aureus ATCC 25923): ≤ 0.004 µg/mL; MIC [2]: ≤ 0.004 µg/mL; MIC [3]: 0.125 µg/mL; MIC ([4]; ATCC19434, read-out: MIC E. faecium ATCC 19434): 0.25 µg/mL; MIC ([5]; ATCC29212, read-out: MIC E. faecalis ATCC 29212): 0.016 µg/mL; MIC ([6]; ATCC49619, read-out: MIC S. pneumonia ATCC 49619): 0.032 µg/mL; MIC ([7]; ATCC25922, read-out: MIC E. coli ATCC 25922): 0.064 µg/mL; MIC ([8]; ATCC19606, read-out: MIC A. baumannii B. ATCC 19606): 0.064 µg/mL; MIC ([9]; ATCC27853, read-out: MIC P. aeruginosa ATCC 27853): 2 µg/mL; MIC ([10]; ATCC33495, read-out: MIC K. pneumoniae ATCC 33495): 0.125 µg/mL; MIC ([11]; ATCC49247, read-out: MIC H. influenzae ATCC 49247): ≤ 0.004 µg/mL; MIC ([12]; ATCC17677, read-out: MIC S. maltophilia ATCC 17677): 0.064 µg/mL |

Now from value to molecule, other results behind:

| MIC [1, 13] | MIC [2, 14] | MIC [3, 14] | MIC [4, 15] | MIC [5, 16] | MIC [6, 17] | MIC [7, 18] | MIC [8, 19] | MIC [9, 20] | MIC [10, 21] | MIC [11, 22] | MIC [12, 23] | Structure (SMILES) | other results |
| --- | --- | --- | --- | --- | --- | --- | --- | --- | --- | --- | --- | --- | --- |
| 0.064 µg/mL | 0.064 µg/mL | 1 µg/mL | 8 µg/mL | 0.125 µg/mL | 0.25 µg/mL | 0.5 µg/mL | 1 µg/mL | > 8 µg/mL | 1 µg/mL | 0.064 µg/mL | 1 µg/mL | Cc1c(-c2ccc(N(C)C)cc2)ccn2c(=O)c(C(=O)O)cc(C3CC3)c12 [Example 25 K salt, 1-cyclopropyl-8-(4-(dimethylamino)-phenyl)-9-methyl-4-oxo-4H-quinolizine-3-carboxylic acid] |  |
| 0.016 to 0.032 µg/mL | 0.016 µg/mL | 0.5 µg/mL | 0.5 to 1 µg/mL | 0.064 µg/mL | 0.25 µg/mL | 0.25 µg/mL | 0.5 µg/mL | 2 µg/mL | 0.5 to 1 µg/mL | 0.016 to 0.032 µg/mL | 0.5 µg/mL | Cc1ccc(-c2ccn3c(=O)c(C(=O)O)cc(C4CC4)c3c2C)cc1 [Example 33 K salt, 1-cyclopropyl-8-(4-methyl-phenyl)-9-methyl-4-oxo-4H-quinolizine-3-carboxylic acid] |  |
| 0.016 to 0.032 µg/mL | 0.016 µg/mL | 0.5 µg/mL | 0.5 µg/mL | 0.032 µg/mL | 0.064 µg/mL | 0.125 µg/mL | 0.5 µg/mL | 8 µg/mL | 0.25 µg/mL | 0.008 µg/mL | 0.125 µg/mL | Cc1c(-c2ccc(C(N)=O)cc2)ccn2c(=O)c(C(=O)O)cc(C3CC3)c12 [Example 36 K salt, 8-(4-carbamoyl-phenyl)-1-cyclopropyl-9-methyl-4-oxo-4H-quinolizine-3-carboxylic acid] |  |
| 2 µg/mL | 0.125 µg/mL | 8 µg/mL | > 8 µg/mL | 0.5 µg/mL | 1 µg/mL | > 8 µg/mL | > 8 µg/mL | > 8 µg/mL | > 8 µg/mL | 0.064 µg/mL | > 8 µg/mL | Cc1c(-c2ccc(C(=O)O)cc2)ccn2c(=O)c(C(=O)O)cc(C3CC3)c12 [Example 37 K salt, 8-(4-carboxy-phenyl)-1-cyclopropyl-9-methyl-4-oxo-4H-quinolizine-3-carboxylic acid] |  |
